Test results published in patent US10072001B2, “Tank-binding kinase inhibitor compounds” (Gilead Sciences, Inc., priority 2014, dated 2018).

Key:
IKKε = IKKε (Homo sapiens (Human), UniProt Q14164); assay: TR-FRET kinase assay, IKKε; assay type: biochemical; conditions: full length recombinant IKKε 0.3 nM, 2x Km ATP, 1 μM peptide, 240 min at 25° C.; geometric mean of minimum four determinations
From the text: Biological Assay for TBK1 and IKKs:

TBK1 = TBK1 (Homo sapiens (Human), UniProt Q9UHD2); assay: TR-FRET kinase assay, TBK1; conditions: read-out: TBK1-IC50; full length recombinant TBK1 2.5 nM, 2x Km ATP, 1 μM peptide, 240 min at 25° C.; geometric mean of minimum four determinations
TBK1, sequence (Q9UHD2 whole entry): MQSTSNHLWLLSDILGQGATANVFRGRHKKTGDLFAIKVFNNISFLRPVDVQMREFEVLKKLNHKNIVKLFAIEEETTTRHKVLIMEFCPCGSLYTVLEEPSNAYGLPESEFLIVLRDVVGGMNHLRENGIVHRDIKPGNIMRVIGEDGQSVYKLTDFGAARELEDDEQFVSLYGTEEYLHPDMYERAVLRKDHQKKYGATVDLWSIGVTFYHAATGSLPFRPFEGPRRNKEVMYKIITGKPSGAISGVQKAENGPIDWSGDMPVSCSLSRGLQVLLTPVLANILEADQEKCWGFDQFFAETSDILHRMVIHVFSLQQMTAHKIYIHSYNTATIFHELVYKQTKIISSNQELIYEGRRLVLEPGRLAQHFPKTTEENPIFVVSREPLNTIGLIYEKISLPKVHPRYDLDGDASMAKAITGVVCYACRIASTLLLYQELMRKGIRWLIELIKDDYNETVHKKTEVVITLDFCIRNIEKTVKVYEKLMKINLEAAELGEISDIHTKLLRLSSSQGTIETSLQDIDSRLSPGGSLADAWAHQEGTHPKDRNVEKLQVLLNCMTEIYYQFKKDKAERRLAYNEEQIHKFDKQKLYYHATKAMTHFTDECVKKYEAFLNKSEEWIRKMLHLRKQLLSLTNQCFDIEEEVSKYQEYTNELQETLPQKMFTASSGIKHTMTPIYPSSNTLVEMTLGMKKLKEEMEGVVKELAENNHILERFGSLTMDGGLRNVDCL

IKKε, sequence (Q14164 whole entry): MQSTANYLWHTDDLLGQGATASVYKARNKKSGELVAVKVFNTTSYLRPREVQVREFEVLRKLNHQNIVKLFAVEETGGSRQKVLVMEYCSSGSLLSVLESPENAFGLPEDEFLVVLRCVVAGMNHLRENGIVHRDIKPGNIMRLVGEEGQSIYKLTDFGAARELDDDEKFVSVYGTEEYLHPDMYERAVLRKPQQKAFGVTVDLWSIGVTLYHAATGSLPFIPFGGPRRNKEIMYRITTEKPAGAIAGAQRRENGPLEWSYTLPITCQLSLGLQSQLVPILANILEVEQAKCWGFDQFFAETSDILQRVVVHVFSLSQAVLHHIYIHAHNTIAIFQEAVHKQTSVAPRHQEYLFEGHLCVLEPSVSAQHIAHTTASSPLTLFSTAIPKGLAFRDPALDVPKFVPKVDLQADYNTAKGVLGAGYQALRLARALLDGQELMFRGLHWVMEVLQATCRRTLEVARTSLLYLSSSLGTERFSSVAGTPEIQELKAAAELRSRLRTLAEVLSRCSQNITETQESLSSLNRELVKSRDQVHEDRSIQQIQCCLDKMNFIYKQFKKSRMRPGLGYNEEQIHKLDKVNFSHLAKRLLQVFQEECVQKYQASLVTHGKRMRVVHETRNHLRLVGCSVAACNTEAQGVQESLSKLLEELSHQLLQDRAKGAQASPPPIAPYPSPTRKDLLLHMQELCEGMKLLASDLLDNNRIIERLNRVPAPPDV

SMILES | IC50 (IKKε) [nM] | IC50 (TBK1) [nM]
Cc1cc(N2CCOCC2)ccc1-c1cc2c(-c3ccc(OC4CCN(C(=O)CO)CC4)c(C#N)c3)ncnc2[nH]1 [Example 121, 2-((1-(2-hydroxyacetyl)piperidin-4-yl)oxy)-5-(6-(2-methyl-4-morpholinophenyl)-7H-pyrrolo[2,3-d]pyrimidin-4-yl)benzonitrile] | 4.4 | 1.28
N#Cc1cc(-c2ccnc3[nH]c(-c4cnn(C5CCNCC5)c4)cc23)ccc1OC1CCOCC1 [Example 10, 5-(2-(1-(piperidin-4-yl)-1H-pyrazol-4-yl)-1H-pyrrolo[2,3-b]pyridin-4-yl)-2-((tetrahydro-2H-pyran-4-yl)oxy)benzonitrile] | 1.74 | 1.22
N#Cc1cc(-c2c(F)cnc3[nH]c(-c4ccc(N5CCOCC5)cc4)cc23)ccc1OC1CCOCC1 [Example 47, 5-(5-fluoro-2-(4-morpholinophenyl)-1H-pyrrolo[2,3-b]pyridin-4-yl)-2-((tetrahydro-2H-pyran-4-yl)oxy)benzonitrile] | 17.5 | 4.05
N#Cc1cc(-c2ncnc3[nH]c(-c4ccc(N5CCOCC5)cc4)cc23)ccc1OC1CCOCC1 [Example 101, 5-(6-(4-morpholinophenyl)-7H-pyrrolo[2,3-d]pyrimidin-4-yl)-2-((tetrahydro-2H-pyran-4-yl)oxy)benzonitrile] | 8.06 | 1.72
N#Cc1cc(-c2ccnc3[nH]c(-c4cnn(C5CCOCC5)c4)cc23)ccc1OC1CCOCC1 [Example 51, 5-(2-(1-(tetrahydro-2H-pyran-4-yl)-1H-pyrazol-4-yl)-1H-pyrrolo[2,3-b]pyridin-4-yl)-2-((tetrahydro-2H-pyran-4-yl)oxy)benzonitrile] | 2.98 | 3.54
CS(=O)(=O)c1ccc(-c2ccnc3[nH]c(-c4ccc(N5CCOCC5)cc4)cc23)cc1C#N [Example 192, 2-(methylsulfonyl)-5-(2-(4-morpholinophenyl)-1H-pyrrolo[2,3-b]pyridin-4-yl)benzonitrile] | 1000 | 275
N#Cc1cc(-c2ncnc3[nH]c(-c4ccc(N5CCOCC5)cc4)nc23)ccc1OC1CCN(C(=O)C(F)F)CC1 [Example 248, 2-((1-(2,2-difluoroacetyl)piperidin-4-yl)oxy)-5-(8-(4-morpholinophenyl)-9H-purin-6-yl)benzonitrile] | 9.82 | 3.63
N#Cc1cc(-c2ccnc3[nH]c(-c4ccc(N5CCOCC5)cc4)cc23)ccc1N1CCCC1=O [Example 13, 5-(2-(4-morpholinophenyl)-1H-pyrrolo[2,3-b]pyridin-4-yl)-2-(2-oxopyrrolidin-1-yl)benzonitrile] | 182 | 24.9
COc1ccc(C#N)cc1-c1ncnc2[nH]c(-c3ccc(N4CCOCC4)cc3)cc12 [Example 133, 4-methoxy-3-(6-(4-morpholinophenyl)-7H-pyrrolo[2,3-d]pyrimidin-4-yl)benzonitrile] | 1000 | 1000
CC(C)NC(=O)c1cc2c(-c3ccc(OC4CCOCC4)c(C#N)c3)ccnc2[nH]1 [Example 60, 4-(3-cyano-4-((tetrahydro-2H-pyran-4-yl)oxy)phenyl)-N-isopropyl-1H-pyrrolo[2,3-b]pyridine-2-carboxamide] | 44.5 | 63.8
N#Cc1cc(-c2ncnc3[nH]c(-c4ccc(C(=O)NC5COC5)cc4)cc23)ccc1OC1CCN(C(=O)CO)CC1 [Example 163, 4-(4-(3-Cyano-4-((1-(2-hydroxyacetyl)piperidin-4-yl)oxy)phenyl)-7H-pyrrolo[2,3-d]pyrimidin-6-yl)-N-(oxetan-3-yl)benzamide] | 1.8 | 1.78
CN(C)Cc1ccc(-c2nc3c(-c4ccc(OC5CCN(C(=O)C(F)F)CC5)c(C#N)c4)ncnc3[nH]2)cc1 [Example 267, 2-((1-(2,2-difluoroacetyl)piperidin-4-yl)oxy)-5-(8-(4-((dimethylamino)methyl)phenyl)-9H-purin-6-yl)benzonitrile] | 1000 | 1000
N#Cc1cc(-c2ncnc3[nH]c(-c4ccc(N5CCOCC5)cc4)nc23)ccc1OC1CCOCC1 [Example 201, 5-(8-(4-morpholinophenyl)-9H-purin-6-yl)-2-((tetrahydro-2H-pyran-4-yl)oxy)benzonitrile] | 19.7 | 3
N#Cc1cc(-c2ccnc3[nH]c(-c4cccc(N5CCOCC5)c4)nc23)ccc1OC1CCOCC1 [Example 308, 5-(2-(3-morpholinophenyl)-3H-imidazo[4,5-b]pyridin-7-yl)-2-((tetrahydro-2H-pyran-4-yl)oxy)benzonitrile] | 18.1 | 25.1
N#Cc1cc(-c2ncnc3[nH]c(-c4ccc(C5CCN(CC(F)F)CC5)cc4)nc23)ccc1OC1CCN(C=O)CC1 [Example 258, 5-(8-(4-(1-(2,2-difluoroethyl)piperidin-4-yl)phenyl)-9H-purin-6-yl)-2-((1-formylpiperidin-4-yl)oxy)benzonitrile] | 12.9 | 6.4
N#Cc1cc(-c2ncnc3[nH]c(-c4cccc(C(N)=O)c4)cc23)ccc1OC1CCOCC1 [Example 171, 3-(4-(3-cyano-4-((tetrahydro-2H-pyran-4-yl)oxy)phenyl)-7H-pyrrolo[2,3-d]pyrimidin-6-yl)benzamide] | 10.6 | 6.4
CC(=O)Nc1ccc(-c2cc3c(-c4ccc(OC5CCOCC5)c(C#N)c4)ccnc3[nH]2)cn1 [Example 236, N-(5-(4-(3-cyano-4-((tetrahydro-2H-pyran-4-yl)oxy)phenyl)-1H-pyrrolo[2,3-b]pyridin-2-yl)pyridin-2-yl)acetamide] | 7.91 | 15.8
N#Cc1cc(-c2ncnc3[nH]c(-c4ccc(OCCN5CCCC5)cc4)cc23)ccc1OC1CCN(C(=O)CO)CC1 [Example 229, 2-((1-(2-hydroxyacetyl)piperidin-4-yl)oxy)-5-(6-(4-(2-(pyrrolidin-1-yl)ethoxy)phenyl)-7H-pyrrolo[2,3-d]pyrimidin-4-yl)benzonitrile] | 0.851 | 1.01
N#Cc1cc(-c2ncnc3[nH]c(-c4ccc(CN5CCOCC5)cc4)nc23)ccc1OC1CCOCC1 [Example 252, 5-(8-(4-(morpholinomethyl)phenyl)-9H-purin-6-yl)-2-((tetrahydro-2H-pyran-4-yl)oxy)benzonitrile] | 4.85 | 3.34
CC(C)(C)OC(=O)n1ccc2cc(-c3cc4c(-c5ccc(OC6CCOCC6)c(C#N)c5)ccnc4[nH]3)ccc21 [Example 44, tert-butyl 5-(4-(3-cyano-4-((tetrahydro-2H-pyran-4-yl)oxy)phenyl)-1H-pyrrolo[2,3-b]pyridin-2-yl)-1H-indole-1-carboxylate] | > 1000 | > 1000
CC(C)(O)c1ccc(-c2cc3c(-c4ccc(OC5CCOCC5)c(C#N)c4)c(F)cnc3[nH]2)cc1 [Example 173, 5-(5-fluoro-2-(4-(2-hydroxypropan-2-yl)phenyl)-1H-pyrrolo[2,3-b]pyridin-4-yl)-2-((tetrahydro-2H-pyran-4-yl)oxy)benzonitrile] | 115 | 15.6
N#Cc1cc(-c2ccnc3[nH]c(-c4ccc(N5CCOCC5)cc4)cc23)ccc1OC1CCCOC1 (stereo not drawn) [Example 239, 5-(2-(4-morpholinophenyl)-1H-pyrrolo[2,3-b]pyridin-4-yl)-2-((tetrahydro-2H-pyran-3-yl)oxy)benzonitrile] | 193 | 44.7
CN1CCN(C(=O)c2ccc(-c3cc4c(-c5ccc(OC6CCN(C(=O)CO)CC6)c(C#N)c5)ncnc4[nH]3)cc2)CC1 [Example 161, 2-((1-(2-Hydroxyacetyl)piperidin-4-yl)oxy)-5-(6-(4-(4-methylpiperazine-1-carbonyl)phenyl)-7H-pyrrolo[2,3-d]pyrimidin-4-yl)benzonitrile] | 1.12 | 1.56
N#Cc1cc(-c2ccnc3[nH]c(-c4ccc(N5CCOCC5)cc4)nc23)ccc1OC1CCOCC1 [Example 305, 5-(2-(4-morpholinophenyl)-3H-imidazo[4,5-b]pyridin-7-yl)-2-((tetrahydro-2H-pyran-4-yl)oxy)benzonitrile] | 10.8 | 3.2
N#Cc1cc(-c2ncnc3[nH]c(-c4cccc(N5CCOCC5)c4)nc23)ccc1OC1CCOCC1 [Example 211, 5-(8-(3-morpholinophenyl)-9H-purin-6-yl)-2-((tetrahydro-2H-pyran-4-yl)oxy)benzonitrile] | 25.3 | 9.57
N#Cc1cc(-c2ccnc3[nH]c(C4=CC5CCC4C5)cc23)ccc1OC1CCOCC1 (stereo not drawn) [Example 43, 5-(2-(bicyclo[2.2.1]hept-2-en-2-yl)-1H-pyrrolo[2,3-b]pyridin-4-yl)-2-((tetrahydro-2H-pyran-4-yl)oxy)benzonitrile] | > 1000 | 434
N#Cc1cc(-c2ccnc3[nH]c(C4=CCNC4)cc23)ccc1OC1CCOCC1 [Example 37, 5-(2-(2,5-dihydro-1H-pyrrol-3-yl)-1H-pyrrolo[2,3-b]pyridin-4-yl)-2-((tetrahydro-2H-pyran-4-yl)oxy)benzonitrile] | 46.3 | 13.4
N#Cc1cc(-c2ccnc3[nH]c(-c4ccc(N5CCOCC5)cc4)nc23)ccc1OC1CCN(C(=O)CO)CC1 [Example 198, 2-((1-(2-hydroxyacetyl)piperidin-4-yl)oxy)-5-(2-(4-morpholinophenyl)-3H-imidazo[4,5-b]pyridin-7-yl)benzonitrile] | 3.42 | 2.3
CC1(C)C(=O)Nc2cc(-c3cc4c(-c5ccc(OC6CCOCC6)c(C#N)c5)ccnc4[nH]3)ccc21 [Example 76, 5-(2-(3,3-dimethyl-2-oxoindolin-6-yl)-1H-pyrrolo[2,3-b]pyridin-4-yl)-2-((tetrahydro-2H-pyran-4-yl)oxy)benzonitrile] | > 1000 | 5.76
CC(C)(O)c1ccc(-c2cc3c(-c4ccc(OC5CCOCC5)c(C#N)c4)ncnc3[nH]2)cn1 [Example 129, 5-(6-(6-(2-hydroxypropan-2-yl)pyridin-3-yl)-7H-pyrrolo[2,3-d]pyrimidin-4-yl)-2-((tetrahydro-2H-pyran-4-yl)oxy)benzonitrile] | 17.4 | 2.77
